The values that follow come from patent US9205156B2, “Molecular imaging agents” (HADASIT MEDICAL RESEARCH SERVICES & DEVELOPMENT LIMITED, priority 2010, dated 2015).

Each structure is given as a SMILES string.

One data set is described as follows: log P (lipophilicity). Type of data set: physicochemical. Particulars: n=3, data not shown.
Data set [1] is described as follows: Tracer biodistribution studies in mice (γ-counter, % ID/g). Particulars: BALB/c Ola/Hsd, mouse, in vivo. As to the method: Compounds [^11C]-1, [^11C]-2, [^11C]-3, [^11C]-4, [^11C]-6, [^11C]-7 and Technetium-99 m methoxy isobutyl isonitrile ([^99mTc]MIBI) biodistribution studies were carried out with BALB/c Ola/Hsd mice (7-8 week). Tracers were injected in a 10% EtOH/saline solution as vehicle. Either [^11C]-1 (62±15 μCi; […]; 122±13 μL), [^11C]-2 (68±12 μCi; 2.5±0.4 MBq; 188±1.3 μL), [^11C]-3 (70±17 μCi; 2.6±0.6 MBq; 185±5 μL), [^11C]-4 (18±5 μCi; […]; 195±2.2 μL or 1.24±0.93 MBq, 229±63 μL), [^11C]-6 (1.95±0.21 MBq, 83±41 μL), [^11C]-7 (2.01±0.16 MBq, 169±73 μL) or [^99mTc]mibi (14.2±1.7 μCi; 3.6±0.4 MBq; 97.7±12.5 μL) were injected via the lateral vein. At allotted time points (1, 5, 10, 15 min), blood was drawn from the orbital sinus, mice were sacrificed by cervical dislocation and selected organs (heart, lungs, liver and kidney) were excised, weighed and measured for their radioactive content using a γ-counter (1480 Wizard 3″). Distribution of activity was calculated as the percentage of injected dose per gram of organ (% ID/g). Activity uptake ratios of various organs were calculated by dividing the corresponding calculated % ID/gs.
Distribution of activity was calculated as the percentage of injected dose per gram of wet tissue (% ID/g). Activity uptake ratios of various organs were calculated by dividing the corresponding calculated % ID/g. Heart standardized uptake values (SUVs) were calculated by dividing the % ID in the heart of each rat by the percentage of heart weight of the total body weight of the animal.

Consider `CN(C)c1ccc([N+](C)(C)[11CH3])cc1` [[^11C]-3, [^11C](4-dimethylamino-phenyl)-trimethyl-ammonium iodide], for which, in the data set “log P (lipophilicity)”, the lipophilicity (logP) is -0.93 ± 0.1. Further, the “radioactivity uptake in the heart” value in data set [1] (1 min) was found to be 48.7 % ID/g; in data set [1] (5 min), 47.7 % ID/g; in data set [1] (10 min), 40.15 % ID/g; in data set [1] (15 min) it was 28.5 % ID/g.
